Results reported in ChEMBL document CHEMBL1144654, “Discovery of 1-(4-phenoxypiperidin-1-yl)-2-arylaminoethanone stearoyl-CoA desaturase 1 inhibitors” (Bioorg Med Chem Lett, 2007).

Biological target: T1, Stearoyl-CoA desaturase (Homo sapiens, UniProt O00767)
T1 sequence (O00767 whole entry): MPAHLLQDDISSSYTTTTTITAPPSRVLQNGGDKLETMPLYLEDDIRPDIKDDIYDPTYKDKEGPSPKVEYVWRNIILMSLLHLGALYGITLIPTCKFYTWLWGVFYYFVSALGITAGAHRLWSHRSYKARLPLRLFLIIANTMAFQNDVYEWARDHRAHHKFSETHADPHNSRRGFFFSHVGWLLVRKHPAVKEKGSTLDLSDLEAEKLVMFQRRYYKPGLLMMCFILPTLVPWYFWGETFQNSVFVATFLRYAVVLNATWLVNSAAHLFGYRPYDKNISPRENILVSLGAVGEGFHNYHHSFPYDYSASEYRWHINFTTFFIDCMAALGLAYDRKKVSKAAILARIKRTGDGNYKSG
Experiment: Inhibition of human SCD1

Row | SMILES | IC50 [nM]
1 | CC(C)CNC(=O)c1nccnc1NCC(=O)N1CCC(Oc2ccccc2Cl)CC1 | 260
2 | O=C(NCc1ccccn1)c1nccnc1NCC(=O)N1CCC(Oc2ccccc2Cl)CC1 | 110
3 | O=C(NCc1ccncc1)c1nccnc1NCC(=O)N1CCC(Oc2ccccc2Cl)CC1 | 110
4 | O=C(Nc1ccccc1)c1nccnc1NCC(=O)N1CCC(Oc2ccccc2Cl)CC1 | 550
5 | COC(=O)c1nccnc1NCC(=O)N1CCC(Oc2ccccc2Cl)CC1 | 39
6 | O=Cc1nccnc1NCC(=O)N1CCC(Oc2ccccc2Cl)CC1 | 210
7 | N#Cc1nccnc1NCC(=O)N1CCC(Oc2ccccc2Cl)CC1 | 340
8 | O=C(CNc1nccnc1Cl)N1CCC(Oc2ccccc2Cl)CC1 | 30
9 | CNC(=O)c1nccnc1NCC(=O)N1CCC(Oc2ccccc2)CC1 | 6300
10 | CNC(=O)c1nccnc1NCC(=O)N1CCC(Oc2ccccc2Br)CC1 | 58
11 | CNC(=O)c1nccnc1NCC(=O)N1CCC(Oc2cc(Cl)ccc2Cl)CC1 | 38
12 | O=C(NCc1ccccc1)c1ncccc1NCC(=O)N1CCC(Oc2ccccc2Cl)CC1 | 560
13 | O=C(NCc1ccccc1)c1nccnc1NCC(=O)N1CCC(Oc2ccccc2Cl)CC1 | 140
14 | O=C(NCc1ccccc1)c1cccc(NCC(=O)N2CCC(Oc3ccccc3C(F)(F)F)CC2)n1 | 7300
15 | CNC(=O)c1cccnc1NCC(=O)N1CCC(Oc2ccccc2C(F)(F)F)CC1 | > 1000
16 | CNC(=O)c1ncccc1NCC(=O)N1CCC(Oc2ccccc2C(F)(F)F)CC1 | 97
17 | CCNC(=O)c1ncccc1NCC(=O)N1CCC(Oc2ccccc2C(F)(F)F)CC1 | 110

Row | SMILES | IC50 [nM]
18 | O=C(NCc1cccnc1)c1ncccc1NCC(=O)N1CCC(Oc2ccccc2C(F)(F)F)CC1 | 430
19 | O=C(NCc1ccncc1)c1ncccc1NCC(=O)N1CCC(Oc2ccccc2C(F)(F)F)CC1 | 350
20 | O=C(NCCc1ccccc1)c1ncccc1NCC(=O)N1CCC(Oc2ccccc2C(F)(F)F)CC1 | 780
21 | CN(C)C(=O)c1ncccc1NCC(=O)N1CCC(Oc2ccccc2C(F)(F)F)CC1 | > 10000
22 | O=C(NC1CCCC1)c1ncccc1NCC(=O)N1CCC(Oc2ccccc2C(F)(F)F)CC1 | > 10000
23 | CNC(=O)c1nccnc1NCC(=O)N1CCC(Oc2ccccc2Cl)CC1 | 51
24 | CCNC(=O)c1nccnc1NCC(=O)N1CCC(Oc2ccccc2Cl)CC1 | 39
25 | CNC(=O)c1nccnc1NCC(=O)N1CCC(Oc2cc(F)cc(F)c2Cl)CC1 | 35
26 | CNC(=O)c1nccnc1NCC(=O)N1CCC(C(=O)c2ccccc2)CC1 | > 1000
27 | O=C(NCCO)c1nccnc1NCC(=O)N1CCC(Oc2ccccc2Cl)CC1 | 100
28 | CNC(=O)c1nccnc1NCC(=O)N1CCC(Oc2cc(F)ccc2Cl)CC1 | 51
29 | O=C(NCc1cccnc1)c1nccnc1NCC(=O)N1CCC(Oc2ccccc2Cl)CC1 | 99
30 | NC(=O)c1ncccc1NCC(=O)N1CCC(Oc2ccccc2C(F)(F)F)CC1 | 90
31 | CCCNC(=O)c1ncccc1NCC(=O)N1CCC(Oc2ccccc2C(F)(F)F)CC1 | 390
32 | O=C(NCc1ccccc1)c1ccccc1NCC(=O)N1CCC(Oc2ccccc2Cl)CC1 | 580
33 | O=C(NCCO)c1ncccc1NCC(=O)N1CCC(Oc2ccccc2C(F)(F)F)CC1 | 120
34 | NC(=O)c1nccnc1NCC(=O)N1CCC(Oc2ccccc2Cl)CC1 | 94
